# What was measured:
# [1] = tested on: K-562 (leukemia cell line); test: NCI-60 single-dose assay; type: cell-based; settings: Homo sapiens, K562, read-out: growth inhibition (GI%) and cytotoxicity (negative values)
# Text: (§1) We first evaluated the cytotoxic activity of tricyclic-pyrrole carboxamides 1–20 using the NCI-60 cell line panel, representing nine different human cancers: leukemia, melanoma, and cancers of the lung, colon, central nervous system (CNS), ovary, kidney, prostate, and breast (the one-dose graph for compounds 1–20 is reported in Supplementary Materials, Figures S43–S62). Compounds 1, 5, 10, 11, 17, and 20 satisfied pre-determined threshold inhibition criteria in a minimum number of cell lines; therefore, they were also tested in the full five-dose assay (Figures S63–S68 in the Supplementary Materials).
# [2] = tested on: CCRF-CEM (leukemia cell line); test: NCI-60 single-dose assay; type: cell-based, human; settings: Homo sapiens, read-out: growth inhibition (GI%) and cytotoxicity (negative values)
# Text: as §1
# [3] = tested on: COLO 205 (colon cancer cell line); test: NCI-60 single-dose assay; type: cell-based, human; settings: Homo sapiens, COLO 205, read-out: growth inhibition (GI%) and cytotoxicity (negative values)
# Text: as §1
# [4] = tested on: EKVX (non-small cell lung cancer cell line); test: NCI-60 single-dose assay; type: cell-based, human; settings: Homo sapiens, read-out: growth inhibition (GI%) and cytotoxicity (negative values)
# Text: as §1
# [5] = tested on: HCC-2998 (colon cancer cell line); test: NCI-60 single-dose assay; type: cell-based, human; settings: for inhibition at 10 µM: Homo sapiens, HCC 2998, read-out: growth inhibition (GI%) and cytotoxicity (negative values)
# Text: as §1
# [6] = tested on: HCT-116 (colon cancer cell line); test: NCI-60 single-dose assay; type: cell-based, human; settings: Homo sapiens, HCT-116, read-out: growth inhibition (GI%) and cytotoxicity (negative values)
# Text: as §1
# [7] = tested on: HCT-15 (colon cancer cell line); test: NCI-60 single-dose assay; type: cell-based, human; settings: Homo sapiens, HCT-15, read-out: growth inhibition (GI%) and cytotoxicity (negative values)
# Text: as §1
# [8] = tested on: HL-60(TB) (leukemia cell line); test: NCI-60 single-dose assay; type: cell-based, human; settings: Homo sapiens, HL-60, read-out: growth inhibition (GI%) and cytotoxicity (negative values)
# Text: as §1
# [9] = tested on: HT29 (colon cancer cell line); test: NCI-60 single-dose assay; type: cell-based, human; settings: Homo sapiens, HT-29, read-out: growth inhibition (GI%) and cytotoxicity (negative values)
# Text: as §1
# [10] = tested on: KM12 (colon cancer cell line); test: NCI-60 single-dose assay; type: cell-based, human; settings: Homo sapiens, KM12, read-out: growth inhibition (GI%) and cytotoxicity (negative values)
# Text: as §1
# [11] = tested on: LOX IMVI (melanoma cell line); test: NCI-60 single-dose assay; type: cell-based, human; settings: Homo sapiens, LOX IMVI, read-out: growth inhibition (GI%) and cytotoxicity (negative values)
# Text: as §1
# M14 (melanoma cell line) = test: NCI-60 single-dose assay; type: cell-based, human; settings: Homo sapiens, M14, read-out: growth inhibition (GI%) and cytotoxicity (negative values)
# Text: as §1
# [12] = tested on: MALME-3M (melanoma cell line); test: NCI-60 single-dose assay; type: cell-based, human; settings: Homo sapiens, Malme-3M, read-out: growth inhibition (GI%) and cytotoxicity (negative values)
# Text: as §1
# [13] = tested on: MCF-7 (breast cancer cell line); test: NCI-60 single-dose assay; type: cell-based, human; settings: Homo sapiens, MCF7, read-out: growth inhibition (GI%) and cytotoxicity (negative values), MCF-7, 10^−5 M
# Text: as §1
# [14] = tested on: MDA-MB-435 (melanoma cell line); test: NCI-60 single-dose assay; type: cell-based, human; settings: Homo sapiens, MDA-MB-435, read-out: growth inhibition (GI%) and cytotoxicity (negative values)
# Text: as §1
# [15] = tested on: RPMI-8226 (leukemia cell line); test: NCI-60 single-dose assay; type: cell-based, human; settings: Homo sapiens, RPMI-8226, read-out: growth inhibition (GI%) and cytotoxicity (negative values)
# Text: as §1
# [16] = tested on: SK-MEL-2 (melanoma cell line); test: NCI-60 single-dose assay; type: cell-based, human; settings: Homo sapiens, SK-MEL-2, read-out: growth inhibition (GI%) and cytotoxicity (negative values)
# Text: as §1
# [17] = tested on: SK-MEL-28 (melanoma cell line); test: NCI-60 single-dose assay; type: cell-based, human; settings: Homo sapiens, SK-MEL-28, read-out: growth inhibition (GI%) and cytotoxicity (negative values)
# Text: as §1
# SR (leukemia cell line) = test: NCI-60 single-dose assay; type: cell-based, human; settings: Homo sapiens, read-out: growth inhibition (GI%) and cytotoxicity (negative values)
# Text: as §1
# [18] = tested on: SW-620 (colon cancer cell line); test: NCI-60 single-dose assay; type: cell-based, human; settings: Homo sapiens, SW-620, read-out: growth inhibition (GI%) and cytotoxicity (negative values)
# Text: as §1
# [19] = tested on: UACC-257 (melanoma cell line); test: NCI-60 single-dose assay; type: cell-based, human; settings: Homo sapiens, UACC-257, read-out: growth inhibition (GI%) and cytotoxicity (negative values)
# Text: as §1
# [20] = tested on: UACC-62 (melanoma cell line); test: NCI-60 single-dose assay; type: cell-based, human; settings: Homo sapiens, UACC-62, read-out: growth inhibition (GI%) and cytotoxicity (negative values)
# Text: as §1
# [21] = tested on: IAV strain A/PR/8/34 (H1N1); test: microbe, parasite or virus in culture; settings: Influenza A virus, MDCK, read-out: IAV/MDCK EC50
# [22] = tested on: BT-549 (breast cancer cell line); test: NCI-60 single-dose assay; type: cell-based, human; settings: Homo sapiens, BT-549, read-out: growth inhibition (GI%) and cytotoxicity (negative values)
# Text: as §1
# [23] = tested on: MDA-MB-231/ATCC (breast cancer cell line); test: NCI-60 single-dose assay; type: cell-based, human; settings: Homo sapiens, MDA-MB-231, read-out: growth inhibition (GI%) and cytotoxicity (negative values)
# Text: as §1
# [24] = tested on: UO-31 (renal cancer cell line); test: NCI-60 single-dose assay; type: cell-based, human; settings: Homo sapiens, UO-31, read-out: growth inhibition (GI%) and cytotoxicity (negative values)
# Text: as §1
# [25] = tested on: 786-0 (renal cancer cell line); test: NCI-60 single-dose assay; type: cell-based, human; settings: Homo sapiens, 786-0, read-out: growth inhibition (GI%) and cytotoxicity (negative values)
# Text: as §1
# [26] = tested on: CAKI-1 (renal cancer cell line); test: NCI-60 single-dose assay; type: cell-based, human; settings: Homo sapiens, CAKI-1, read-out: growth inhibition (GI%) and cytotoxicity (negative values)
# Text: as §1
# [27] = tested on: NCI-H226 (non-small cell lung cancer cell line); test: NCI-60 single-dose assay; type: cell-based, human; settings: Homo sapiens, NCI-H226, read-out: growth inhibition (GI%) and cytotoxicity (negative values)
# Text: as §1
# [28] = tested on: NCI-H23 (non-small cell lung cancer cell line); test: NCI-60 single-dose assay; type: cell-based, human; settings: Homo sapiens, NCI-H23, read-out: growth inhibition (GI%) and cytotoxicity (negative values)
# Text: as §1
# [29] = tested on: NCI-H460 (non-small cell lung cancer cell line); test: NCI-60 single-dose assay; type: cell-based, human; settings: Homo sapiens, NCI-H460, read-out: growth inhibition (GI%) and cytotoxicity (negative values)
# Text: as §1
# [30] = tested on: RXF 393 (renal cancer cell line); test: NCI-60 single-dose assay; type: cell-based, human; settings: Homo sapiens, RXF 393, read-out: growth inhibition (GI%) and cytotoxicity (negative values)
# Text: as §1
# [31] = tested on: SN12C (renal cancer cell line); test: NCI-60 single-dose assay; type: cell-based, human; settings: Homo sapiens, read-out: growth inhibition (GI%) and cytotoxicity (negative values)
# Text: as §1
# [32] = tested on: T-47D (breast cancer cell line); test: NCI-60 single-dose assay; type: cell-based, human; settings: Homo sapiens, T47D, read-out: growth inhibition (GI%) and cytotoxicity (negative values)
# Text: as §1
# NCI-60 cell line panel = test: NCI-60 single-dose assay, whole panel; type: cell-based, human; settings: summary over the panel
# Text: as §1
SMILES,inhibition at 10 µM [1],inhibition at 10 µM [2],inhibition at 10 µM [3],inhibition at 10 µM [6],inhibition at 10 µM [7],inhibition at 10 µM [8],inhibition at 10 µM [9],inhibition at 10 µM [10],inhibition at 10 µM [11],inhibition at 10 µM (M14 (melanoma cell line)),inhibition at 10 µM [12],inhibition at 10 µM [13],inhibition at 10 µM [14],inhibition at 10 µM [15],inhibition at 10 µM [16],inhibition at 10 µM [17],inhibition at 10 µM (SR (leukemia cell line)),inhibition at 10 µM [18],inhibition at 10 µM [19],inhibition at 10 µM [20],other results
"O=C(NCCN1CCN(c2ccccc2)CC1)c1c(Cl)[nH]c2c1CCCc1ccccc1-2 [Compound 12, 2-Chloro-N-(2-(4-phenylpiperazin-1-yl)ethyl)-1,4,5,6-tetrahydrobenzo[6,7]cyclohepta[1,2-b]pyrrole-3-carboxamide]",70.9%,< 60%,< 60%,65.8%,< 60%,67.2%,65.5%,< 60%,< 60%,< 60%,< 60%,60.9%,< 60%,< 60%,< 60%,< 60%,78.7%,< 60%,< 60%,< 60%,inhibition at 10 µM [4]: 72.3%; inhibition at 10 µM [5]: < 60%; EC50 [21]: 3.49 µM
O=C(NCCN1CCN(c2ccc(Cl)cc2)CC1)c1c(Cl)[nH]c2c1CCCc1ccccc1-2 [Compound 13],70.9%,< 60%,< 60%,< 60%,< 60%,69.6%,69.2%,< 60%,< 60%,< 60%,< 60%,< 60%,< 60%,67.4%,< 60%,< 60%,70.7%,< 60%,< 60%,< 60%,inhibition at 10 µM [22]: < 60%; inhibition at 10 µM [5]: < 60%; inhibition at 10 µM [23]: < 60%; EC50 [21]: 41.3 µM
O=C(NCCN1CCN(c2ccccc2Cl)CC1)c1c(Cl)[nH]c2c1CCCc1ccccc1-2 [Compound 14],70.3%,< 60%,< 60%,66.5%,< 60%,71.7%,< 60%,< 60%,< 60%,< 60%,< 60%,< 60%,< 60%,60.9%,< 60%,< 60%,< 60%,< 60%,< 60%,< 60%,inhibition at 10 µM [22]: < 60%; inhibition at 10 µM [4]: 72.7%; inhibition at 10 µM [5]: < 60%; inhibition at 10 µM [23]: < 60%; inhibition at 10 µM [24]: 63.6%
COc1ccccc1N1CCN(CCNC(=O)c2c(Cl)[nH]c3c2CCCc2ccccc2-3)CC1 [Compound 15],92.7%,< 60%,< 60%,65.2%,66.4%,86.6%,79.4%,< 60%,60.6%,84.8%,70.1%,73%,< 60%,70.1%,< 60%,< 60%,95.5%,60.1%,67%,< 60%,inhibition at 10 µM [25]: < 60%; inhibition at 10 µM [22]: 66.5%; inhibition at 10 µM [26]: 61%; inhibition at 10 µM [4]: 81.7%; growth inhibition (GI%) and cytotoxicity (negative values) ([5]; human): −18.77%; inhibition at 10 µM [23]: < 60%; inhibition at 10 µM [27]: < 60%; inhibition at 10 µM [28]: < 60%; inhibition at 10 µM [29]: < 60%; inhibition at 10 µM [30]: < 60%; inhibition at 10 µM [31]: < 60%; inhibition at 10 µM [24]: 63.6%; EC50 [21]: 17.7 µM
"N#Cc1ccccc1N1CCN(CCNC(=O)c2c(Cl)[nH]c3c2CCCc2ccccc2-3)CC1 [Compound 18, 2-Chloro-N-(2-(4-(2-cyanophenyl)piperazin-1-yl)ethyl)-1,4,5,6-tetrahydrobenzo[6,7]cyclohepta[1,2-b]pyrrole-3-carboxamide]",75.3%,< 60%,< 60%,70.1%,61.3%,74.3%,64.2%,< 60%,< 60%,< 60%,< 60%,78.5%,64.5%,69.1%,< 60%,< 60%,74.2%,< 60%,< 60%,< 60%,inhibition at 10 µM [25]: < 60%; inhibition at 10 µM [22]: 78.3%; inhibition at 10 µM [26]: 62.7%; inhibition at 10 µM [4]: 92.8%; inhibition at 10 µM [5]: < 60%; inhibition at 10 µM [23]: < 60%; inhibition at 10 µM [27]: < 60%; inhibition at 10 µM [28]: < 60%; inhibition at 10 µM [29]: < 60%; inhibition at 10 µM [30]: < 60%; inhibition at 10 µM [31]: < 60%; inhibition at 10 µM [32]: 71.8%; inhibition at 10 µM [24]: 67%; growth inhibition (GI%) reached against cancer cell lines of the NCI-60 panel (NCI-60 cell line panel): > 90%; EC50 [21]: 49.4 µM
